For data set [1], the system named is CCl4-induced chronic severe hepatic fibrosis. As to the kind of experiment: CCl4-induced chronic severe hepatic fibrosis model. Format: in vivo, mice. The conditions noted are these: 1 mg or 3 mg per kg per day, intraperitoneal or tail vein injection, 6-8 weeks. On the procedure:
The ICR, C57Bl/6 mice used in the experiment are purchased from SPF (Beijing) Biotechnology Co., Ltd., carbon tetrachloride is purchased from Aladdin Reagent (Shanghai) Co., Ltd. (C131583-1L), and corn oil is purchased from Sigma (C8267). 8-10 week-old female mice are selected and housed in the barrier for one week, they are randomly divided into two groups, and respectively injected with CCl4/corn oil (a volume ratio of 1:2) and corn oil. The dose of CCl4 is 2 ml/kg, twice a week for […]. After 6 weeks, the mice are anesthetized with 5% chloral hydrate, and part of the hepatic lobe is taken out, fixing with 4% paraformaldehyde, dehydrating and immersing in wax, then staining with Sirius Red (YY-R20384-100ML) kit for fibrosis, wherein the collagenous fibers are red, as shown in FIG. 3B. After successful identification of the modeling, the drug administration is performed by intraperitoneal injection or tail vein injection. […] Further, quantitative PCR is performed to identify the expression of fibrosis-related genes Acta2 (myofibroblast marker), Col1a1 (representing type I collagen), Col1a2 (representing type I collagen), Col6a1 (representing collagen), Col6a2 (representing collagen), and Vim (representing fibroblasts), as shown in FIG. 3E and FIG. 3F (continued). […]

Data set [2] has as its system bleomycin-induced skin sclerosis. As to the kind of experiment: Bleomycin-induced scleroderma model. The class given is in vivo, mice. The conditions noted are these: 1-3 mg/kg/day intraperitoneal. An excerpt: Scleroderma is a connective tissue disease characterized by localized or diffuse fibrosis of the skin and internal organs, thereby hardening and shrinking. The disease may cause multisystem injury, its exact cause and pathogenesis are still unclear, and there is no effective treatment means. […] One week after injection of bleomycin, the skin at the injection site on the back of mice begins to thicken and harden, and has poor elasticity; there is no change in hair growth until the end of the injection; meanwhile, induration and incrustation occurs at the injection site, accompanying with superficial ulcers. As for the shaved injection area on the back of the mice in the saline control group, the hair grows continuously, and no significant skin hardening and thickening phenomenon is observed, as shown in FIG. 7B. Treatment group (Bleb): intraperitoneal administration of myosin inhibitor (−)-blebbistatin (1-3 mg/kg/day, dissolved in 2-5% DMSO+30% PEG400+2% Tween 80+ddH2O); control group (con): without (−)-blebbistatin but containing the same amount of DMSO. […] Further experiments confirm that the myosin inhibitor (−)-blebbistatin promotes melanin accumulation in the induration zone and the growth of new hair, as shown in FIG. 7C.

Data set [3] has as its system human embryonic hepatocytes. As to the kind of experiment: In vitro amplification of human embryonic hepatocytes. Format: cell-based. The settings on record: for cell amplification multiple: 12 days of passage culture (3 generations). On the procedure:
Resuscitation of Human Embryonic Hepatocytes: human embryonic hepatocytes are removed from a liquid nitrogen tank (aborted fetus, frozen storage date is Jan. 15, 2014, frozen stock solution is cell banker 2, frozen cell number is 2×10^7/tube), quickly placing in a 37° C. water bath; and after melting the cells are immediately inhaled into a 15 ml centrifuge tube containing 5 ml of hepatocyte medium (control group), centrifuging at 50 g, 4° C. for 5 min; the supernatant is discarded, and the cells are resuspended in 500 ul hepatocyte medium and calculated as 1.16×10^6 with a cell recovery rate of 5.8%.
Inoculation of Human Embryonic Hepatocytes: inoculation density is 1×10^5/24 well plate, adding 500 μl hepatocyte medium (control group), hepatocyte medium containing 10 μM small molecules, and hepatocyte medium containing 20 μM small molecules respectively; 24 hours after inoculating, 3 wells of cells in each group are digested respectively to count the number of the cells, then calculating the cell adherent rate. 72 hours after inoculating, 3 wells of cells in each group are digested respectively to count the number of the cells. Multiple of the change of cell number may be obtained through dividing the number of cells at 72 hours after inoculation by the number of cells at 24 hours after inoculation. A portion of the cells per well (⅖ of the cell count) are taken for RNA extraction so as to detect human hepatocyte-related gene expression.
The First Passage of Human Embryonic Hepatocytes: cells are respectively inoculated into a 24-well plate coated with rat tail collagen (as described above), and the inoculum density is ⅗ of the number of cells after 72 hours of primary culture; 3 duplicate wells per group. After 72 hours of cell culture, the cells are digested to count the number. Multiple of the first passage amplification may be obtained through dividing the counted number of cells by the number of cells at the time of inoculation. A portion of the cells per well (⅖ of the cell count) are taken for RNA extraction so as to detect human hepatocyte-related gene expression.
The Second Passage of Human Embryonic Hepatocytes: cells are respectively inoculated into a 24-well plate coated with rat tail collagen (as described above), and the inoculum density is ⅗ of the number of cells after 72 hours of the first passage culture. […] After changing the medium every 2 days and continuing to culture for 144 hours (6 days), the cells are digested and counted. Multiple of the second passage amplification may be obtained through dividing the counted number of cells by the number of cells at the time of inoculation. […]

For the compound `Cc1ccc2c(c1)C(=O)[C@]1(O)CCN(c3ccccc3)C1=N2` [(−)-blebbistatin], in data set [1], the “accumulation of collagenous fibers (Sirius red, Col I staining)” value is recorded as “inhibits” and the activation of myofibroblasts result is “inhibits”. In addition, in data set [2], the “FGF9 expression (immunofluorescence)” value is “more FGF9 is expressed”; the “KRT17 positive cells relative to KRT18 positive cells (immunostaining)” value was “much more”; the “NeuN expression in the induration zone (neural fate)” value is “expressed in some cells”; the “accumulation of mesenchymal fibers (H&E and Masson staining)” value is “significantly reduces”. Further, in data set [2], the “epidermal and dermal thickness” value is recorded as “significantly reduces”; the “hair follicle cell proliferation (Ki-67 staining)” value is “promotes”; the “hair follicle regeneration (KRT17/PCNA co-immunostaining)” value was “promotes hair follicle regeneration”; the “melanin accumulation in the induration zone and growth of new hair” value is reported as “promotes”. In addition, the “number of hair follicles or glands” value in data set [2] is given as “promotes”. Also, the “degree of induration and incrustation” value in data set [2] (after 3 weeks of treatment) is recorded as “significantly reduced”. The cell amplification multiple result in data set [3] (20 μM Bleb medium) was “about 13 times”. Further, the cell amplification multiple entry in data set [3] (10 μm small-molecule medium) is “about 22.1 times”. In addition, the “expression of human hepatocyte-specific genes ALB and AFP (real-time quantitative PCR)” value in data set [3] (12 days of passage culture in 10 μM and 20 μM small molecule media) was “still express human hepatocyte-specific genes”. Further, the cell morphology result in data set [3] (after 12 days of passage culture in small molecule medium) is listed as “typical hepatocyte morphology”.
